From paper PMC11218446, “Antibacterial efficacy and membrane mechanism of action of the Serratia-derived non-ionic lipopeptide, serrawettin W2-FL10” (Microbiology Spectrum, 2024)

Experiments:
[1] = test system: methicillin-resistant S. aureus (MRSA); details: cited from earlier work
Description: The antimicrobial activity of the serrawettin W2-FI10 analog (i.e., C10H18O2-Leu-Ser-Thr-Phe-Ile), has been extensively investigated.

Escherichia coli = details: cited from earlier work
Description: (§1) Key parameters contributing to the antimicrobial activity of lipopeptides include hydrophobicity and net charge ([5], [24]). Serrawettin W2-FL10 is a relatively small and moderately amphipathic lipopeptide with a neutral charge.

L. monocytogenes B73 = details: cited from earlier work
Description: as §1

[2] = test system: Chinese hamster ovarian (CHO) cell line; assay: Mammalian cell cytotoxicity, MTT assay; details: CHO cells, MTT, 48 h; reference drug
Description: To determine the biocompatibility of W2-FL10 as a potential therapeutic agent, the in vitro cytotoxicity of W2-FL10 against the CHO cell line ([50]) was determined over 48 h by the Drug Discovery and Development Centre at the University of Cape Town, as previously described by Mosmann ([51]). Briefly, W2-FL10 was prepared to a 10 mM stock solution in 100% DMSO and dilutions were prepared in growth media. The CHO cell line density of 10^5 cells/well in 96-well plates and allowed to attach for 24 h. Thereafter, the compound was added to the 96-well plates at various concentrations from 50 µM down to 16 nM and incubated for a further 48 h. At 44 h, MTT was added to the wells, and the plates were read 4 h later at 540 nm on a spectrophotometer. […] Finally, cell inhibition was plotted against concentration and the 50% lethal concentration (LC50) parameter and a minimum lethal concentration (MLC90) were obtained as described for the dose responses against bacterial targets above (equation 1).

Molecule: C10H18O2-Leu-Ser-Thr-Phe-Ile (lariat or depsi) [W2-FI10, serrawettin W2-FI10, serrawettin W2 analog, C10H18O2-Leu-Ser-Thr-Phe-Ile]
- concentration with inhibitory activity [1]: 4 µg/mL

Molecule: gramicidin S
- ICF (Escherichia coli): 5.7

Molecule: tyrocidine C
- ICF (L. monocytogenes B73): 1.9
- MIC (L. monocytogenes B73): 13 µM

Molecule: CC[C@H]1CN2CCc3cc(OC)c(OC)cc3[C@@H]2C[C@@H]1C[C@H]1NCCc2cc(OC)c(OC)cc21 [emetine, reference compound]
- LC50 [2]: approximately 40 nM

Molecule: PGla
- ICF (Escherichia coli): 2.5
